# Assay results reported in patent publication US6458835B2, “Method of inhibiting or treating chemotherapy-induced hair loss” (Bristol-Myers Squibb Company, priority 1997, dated 2002).
# Legend:
# C3H mice = assay: Hair growth (hair follicle stimulation) in C3H mouse model, topical application; type: in vivo; details: for percent of animals showing hair follicle stimulation / time of onset of follicle stimulation: 2% solution topical 1x daily; for time of onset of follicle stimulation: male C3H mice, 5 days per week
# Text: The two enantiomers were compared topically for hair growth in C3H mice.
# The C3H mouse is a useful model for studying hair growth. Its usefulness rests with the fact that skin pigmentation of this animal is provided by the melanocytes of the hair follicle and not the epidermis. In the telogen or the resting phase of the hair follicle, the skin is pink. In the earliest phase of anagen or the growth phase, there is sudden graying of the skin and as the anagen phase progresses the skin becomes darker in color. In this study, visual observation was used as an in vivo assay of anagen induction. Furthermore as anagen develops, the skin thickness increases from a thin telogen skin to a measurably thickened anagen skin. Thus, recording the skin color and microscopic thickness of skin from these mice offers a sensitive, quantifiable and convenient method of assessing the phases of hair growth.
# Groups of 20, six to seven week old male C3H mice with hair follicles in the resting phase of hair growth were used. At this stage in their life, the hair follicles remain in the telogen phase for up to 30 days or longer. This provides an adequate window of time to screen drugs. […] This stimulation is manifested by the shortening of the telogen phase of the hair follicle cycle.
# Animals were anesthetized with ketamine/rompun (100 mg/Kg and 12 mg/Kg) IP and the hair over a defined dorsal area were closely clipped.
# The vehicle employed was ethanol/propylene glycol/water, 60/30/10. Treatment was continued for at least 4-5 weeks.
# Animals were observed daily for side effects and changes to the test sites. All observations were documented. Test sites were graded weekly for changes in skin color and hair growth. In this study drug effects were evaluated using the visual observation of skin changing from pink to gray and resulting in hair growth.
SMILES,melting point [°C],"onset of action compared to the corresponding enantiomer (C3H mice; C3H mice, versus (S)-enantiomer)",percent of animals showing hair follicle stimulation (C3H mice; by day 11 of treatment) [%],percent of animals showing hair follicle stimulation (C3H mice; by day 14) [%],percent of animals showing hair follicle stimulation (C3H mice; by day 28) [%],time of onset of follicle stimulation (C3H mice) [days],hair growth promoting ability relative to the (S)-enantiomer (C3H mice; producing hair growth within 11 days of treatment) [times],"incidence of hair follicle stimulation compared to the other enantiomer (C3H mice; throughout the treatment period, versus Example 2-(S)-enantiomer)",IC50 (Vasorelaxant potency) [nM]
"C[C@@H](NC(=NC#N)Nc1ccc(C#N)cc1)C(C)(C)C [Example 1, (R)-4-[[(Cyanoimino)[(1,2,2-trimethylpropyl)amino]-methyl]amino]benzonitrile]",159 to 160,faster onset of action,40,50,85,7,8,higher incidence of hair follicle stimulation,47 ± 17
"C[C@H](NC(=NC#N)Nc1ccc(C#N)cc1)C(C)(C)C [Example 2, (S)-4-[[(Cyanoimino)[(1,2,2-trimethylpropyl)amino]-methyl]amino]benzonitrile]",158 to 159,,5,25,65,11,,,157 ± 35
